Assay [1] deals with MCF7. Kind of assay: Cytotoxicity against Homo sapiens (human) MCF7 cells assessed as growth inhibition at 1 uM after 48 hr by SRB assay. Format: functional. The note with it: MCF7, 48 h, read-out: GI.
In assay [2] the test system is OVCAR-5. Kind of assay: Cytotoxicity against Homo sapiens (human) OVCAR5 cells assessed as growth inhibition at 1 uM after 48 hr by SRB assay. The class given is functional. The settings on record: OVCAR-5, 48 h, read-out: GI.
Assay [3] deals with HEp-2. The assay is described as follows: Cytotoxicity against Homo sapiens (human) Hep2 cells assessed as growth inhibition at 20 uM after 48 hr by SRB assay. The class given is functional. The settings on record: HEp-2, 48 h, read-out: GI.
Assay [4] relates to CV-1. The assay is described as follows: Cytotoxicity against Chlorocebus aethiops (African green monkey) CV1 cells assessed as growth inhibition at 20 uM after 48 hr by SRB assay. The settings on record: CV-1, 48 h, read-out: GI. Format: functional.
The test system of assay [5] is THP-1. The assay is described as follows: Cytotoxicity against Homo sapiens (human) THP1 cells assessed as growth inhibition at 20 uM after 48 hr by SRB assay. Format: functional. The note with it: THP-1, 48 h, read-out: GI.
Assay [6] concerns A549. The assay is described as follows: Cytotoxicity against Homo sapiens (human) A549 cells assessed as growth inhibition at 20 uM after 48 hr by SRB assay. Format: functional. The note with it: A549, 48 h, read-out: GI.
The subject of assay [7] is Candida albicans. The assay is described as follows: Antifungal activity against Candida albicans MTCC 3018 assessed as growth inhibition at 2 mg/mL after 48 hr by disk diffusion method. The class given is functional.
The test system of assay [8] is Saccharomyces cerevisiae. Kind of assay: Antifungal activity against Saccharomyces cerevisiae MTCC 172 assessed as growth inhibition at 2 mg/mL after 48 hr by disk diffusion method. Format: functional.
Assay [9] relates to Staphylococcus aureus. Kind of assay: Antibacterial activity against Staphylococcus aureus MTCC 96 assessed as growth inhibition at 2 mg/mL after 24 hr by disk diffusion method. Format: functional. The settings on record: MTCC 96, 24 h, read-out: DIZ.
Assay [10] concerns Goffeauzyma gastrica. Kind of assay: Antifungal activity against Cryptococcus gastricus MTCC 1715 assessed as growth inhibition at 2 mg/mL after 48 hr by disk diffusion method. The class given is functional.
Assay [11] concerns Escherichia coli. The assay is described as follows: Antibacterial activity against Escherichia coli MTCC 82 assessed as growth inhibition at 2 mg/mL after 24 hr by disk diffusion method. Format: functional.
For assay [12], the system named is Bacillus subtilis. The assay is described as follows: Antibacterial activity against Bacillus subtilis MTCC 2451 assessed as growth inhibition at 2 mg/mL after 24 hr by disk diffusion method. Format: functional.
For assay [13], the system named is Salmonella typhi. Kind of assay: Antibacterial activity against Salmonella enterica subsp. enterica serovar Typhi MTCC 1251 assessed as growth inhibition at 2 mg/mL after 24 hr by disk diffusion method. The class given is functional, organism-based.
The subject of assay [14] is Pseudomonas aeruginosa. The assay is described as follows: Antibacterial activity against Pseudomonas aeruginosa MTCC 2642 assessed as growth inhibition at 2 mg/mL after 24 hr by disk diffusion method. Format: functional.
Assay [15] has as its system Bacillus subtilis. Kind of assay: Antibacterial activity against Bacillus subtilis MTCC 2451 assessed as growth inhibition after 24 hr by broth dilution method. The note with it: MTCC 2451, 24 h. The class given is functional.
In assay [16] the test system is Escherichia coli. The assay is described as follows: Antibacterial activity against Escherichia coli MTCC 82 assessed as growth inhibition after 24 hr by broth dilution method. The note with it: MTCC 82, 24 h. Format: functional.
Assay [17] relates to Pseudomonas aeruginosa. Kind of assay: Antibacterial activity against Pseudomonas aeruginosa MTCC 2642 assessed as growth inhibition after 24 hr by broth dilution method. The class given is functional.
For assay [18], the system named is Staphylococcus aureus. Kind of assay: Antibacterial activity against Staphylococcus aureus MTCC 96 assessed as growth inhibition after 24 hr by broth dilution method. The class given is functional. The settings on record: MTCC 96, 24 h.
For assay [19], the system named is Candida albicans. The assay is described as follows: Antifungal activity against Candida albicans MTCC 3018 assessed as growth inhibition after 48 hr by broth dilution method. The class given is functional.
The subject of assay [20] is Saccharomyces cerevisiae. The assay is described as follows: Antifungal activity against Saccharomyces cerevisiae MTCC 172 assessed as growth inhibition after 48 hr by broth dilution method. Format: functional.
In assay [21] the test system is Salmonella typhi. The assay is described as follows: Antibacterial activity against Salmonella enterica subsp. enterica serovar Typhi MTCC 1251 assessed as growth inhibition after 24 hr by broth dilution method. The class given is functional, organism-based.
For assay [22], the system named is Goffeauzyma gastrica. Kind of assay: Antifungal activity against Cryptococcus gastricus MTCC 1715 assessed as growth inhibition after 48 hr by broth dilution method. The class given is functional.

Four molecules from ChEMBL document CHEMBL3046594, “Bioactive metabolites from an endophytic fungus of Aspergillus species isolated from seeds of Gloriosa superba Linn” (Med Chem Res, 2013) can be followed below.

≈ marks a conversion by molar mass, not a printed value. Calls of active or inactive are those of the source. The calls are words filed in the database; no cut-off is given here.

For the molecule `CO[C@@]12[C@H](COC(N)=O)C3=C(C(=O)C(C)=C(N)C3=O)N1C[C@@H]1N[C@@H]12` [MITOMYCIN], the inhibition of growth at 1 µM in assay [1] stood at 82%; in assay [2], 71%.
In the case of `O=c1[nH]cc(F)c(=O)[nH]1` [FLUOROURACIL], the inhibition of growth at 20 µM in assay [3] worked out at 87%; in [4], 43%; in [5] it was 79%; in assay [6] it was 79%.
For the molecule `CC(C)[C@@H](C)/C=C/[C@@H](C)[C@H]1CC[C@H]2C3=CC=C4C[C@@H](O)CC[C@]4(C)[C@H]3CC[C@]12C` [ERGOSTEROL], the “growth inhibition (GI)” value in assay [7], in assay [8], in [10], in assay [11], in assay [12] and in assay [13] was “inactive” each time. In addition, the zone of inhibition at 2000 µg/mL amounted to 11.2 mm in [9] and 8.7 mm in assay [14] (MTCC 2642, 24 h, read-out: DIZ).
For `O=Cc1ccc(CO)o1` [AES-103], the “growth inhibition (GI)” value in [7], in [10], in assay [13] and in [14] was “inactive” each time. The figures for the minimal inhibitory concentration (MIC) in assay [15], in assay [16] and in [18] were 100 µg/mL (≈ 793 µM), 400 µg/mL (≈ 3170 µM) and 200 µg/mL (≈ 1590 µM), respectively. In addition, the MIC entry in assay [17], in assay [19], in assay [20], in [21] and in assay [22] was “inactive” each time. Further, the zone of inhibition at 2000 µg/mL turned out to be 8.1 mm in assay [8] (MTCC 172, 48 h, read-out: DIZ); 13.1 mm in assay [9]; 9 mm in assay [11] (MTCC 82, 24 h, read-out: DIZ); 11.5 mm in assay [12] (MTCC 2451, 24 h, read-out: DIZ).
